Laboratory results from patent US20140193827A1 (TEVA PHARMACEUTICAL INDUSTRIES, LTD., priority 2013, published 2014).

Tested on: GA-primed murine splenocytes
Test: ANOVA-based pattern identification method
Type: cell-based, mouse
Description: We sought to identify probes matching specific patterns of expression across experimental conditions using a technique that referred to as the ANOVA-based Pattern Identification Method.
To carry out the analysis in a general manner, we computed the 6 p-values required to do pairwise comparisons of all 4 conditions for all probes using the ANOVA1 function in MATLAB. We then identified sets of probes matching the desired pattern. In the example above, probes were identified as being only affected by PG if their 6 pairwise comparison pvalues matched the following pattern (pGA-PG<0.05, pPG-reference standard<0.05, pPG-Medium<0.05, pGAMedium>0.05, pGA-reference standard>0.05, preference standard-Medium>0.05).

[1] = DOWN IN GA AND REF ONLY, first line for this gene
[2] = DOWN IN GA AND REF ONLY, second line for this gene

## glatiramer acetate [GA]
DOWN IN GA AND REF ONLY
  AA536749 expression level: 8.75
  C5F3R expression level: 5.814
  CD33 expression level: 6.382
  CD63 expression level: 7.484
  CLEC4E expression level: 6.76
  CXCR4 expression level: 9.154
  GAS7 expression level: 6.685
  GPR97 expression level: 6.1434
  KLC4 expression level: 7.786
  LOC385923 expression level: 7.651
  LOC386268 expression level: 6.655
  LOC386288 expression level: 7.006
  LOC386360 expression level: 9.445
  TMEM38B expression level: 8.3
  average expression of 1100001G20RIK: 6.239
  average expression of 1110014N23RIK: 9.678
  average expression of 1200002N14RIK: 6.896
  average expression of 1300010F03R1K: 6.604
  average expression of 1300010F03RIK: 6.764
  average expression of 1700073E17RIK: 5.669
  average expression of 1810009N02RIK: 8.11
  average expression of 1810030N24RIK: 6.84
  average expression of 2010001M09RIK: 13.2
  average expression of 2310040G07RIK: 5.712
  average expression of 2310067B10RIK: 7.502
  average expression of 2310079N02RIK: 9.098
  average expression of 2510022D24RIK: 8.141
  average expression of 2610024M03RIK: 6.018
  average expression of 2610028H07RIK: 10.1
  average expression of 2810402K13RIK: 8.169
  average expression of 2810422O20RIK: 7.018
  average expression of 2900079J23RIK: 5.766
  average expression of 3110004L20RIK: 5.934
  average expression of 3110082D06RIK: 5.99
  average expression of 4930519F16RIK: 5.617
  average expression of 4930572J05RIK: 10.41
  average expression of 5031439G07RIK: 7.967
  average expression of 5330417C22RIK: 5.64
  average expression of 5830415F09RIK: 6.998
  average expression of 6230425C21RIK: 7.021
  average expression of 6430511F03: 6.247
  average expression of 6430526N21RIK: 7.232
  average expression of 6720480F11RIK: 5.641
  average expression of 6720486H14RIK: 5.584
  average expression of 9030025P20RIK: 8.593
  average expression of 9330152L17: 5.75
  average expression of A430043M19RIK: 6.108
  average expression of A630038P11RIK: 5.552
  average expression of A730017D01RIK: 6.519
  average expression of A930014P08RIK: 5.554
  average expression of ABCC4: 7.757
  average expression of ACBD4: 9.154
  average expression of ACP2: 6.811
  average expression of ACTR3B: 6.47
  average expression of ADAM11: 5.629
  average expression of AGAP1: 5.989
  average expression of ANKRD13A: 10.24
  average expression of APP: 6.949
  average expression of ARHGAP22: 6.192
  average expression of ATP6V1B2: 10.4
  average expression of AW011738: 6.2494
  average expression of B130002B06RIK: 5.7347
  average expression of B930048N13RIK: 5.895
  average expression of B930049N04RIK: 5.592
  average expression of B930097H17RIK: 5.792
  average expression of BC014795: 8.05
  average expression of BC065397: 6.46
  average expression of BC066107: 6.578
  average expression of BMP3: 5.623
  average expression of BRD2: 11.26
  average expression of C330019G07RIK: 6.738
  average expression of C430003P19RIK: 9.571
  average expression of CAGE1: 5.862
  average expression of CASP1: 11.51
  average expression of CBLC: 5.866
  average expression of CD151: 8.029
  average expression of CENTG3: 6.784
  average expression of CEPT1: 10.22
  average expression of CFB: 6.244
  average expression of CLEC4A1: 6.263
  average expression of CLEC5A: 5.873
  average expression of CNTNAP3: 5.796
  average expression of COgeneric: 8.105
  average expression of CREG1: 6.616
  average expression of CRTAC1: 5.925
  average expression of CTSL: 5.744
  average expression of D030051N19RIK: 8.287
  average expression of D030072B18RIK: 5.56
  average expression of DGKQ: 6.895
  average expression of DLG3: 7.023
  average expression of DNMT3L: 6.042
  average expression of DUSP6: 5.768
  average expression of E330023P07RIK: 5.77
  average expression of EG434402: 9.171
  average expression of EG633640: 6.136
  average expression of ELL: 9.635
  average expression of EPB4.1L3: 5.896
  average expression of EPN3: 5.711
  average expression of ERCC4: 8.15
  average expression of FA2H: 5.977
  average expression of FBXL20: 7.805
  average expression of FCMD: 6.473
  average expression of FOS: 6.875
  average expression of FRMPD1: 5.584
  average expression of GAA: 8.021
  average expression of GALGT1: 7.448
  average expression of GALNT10: 8.096
  average expression of GDPD1: 6.392
  average expression of GM498: 5.674
  average expression of GPS2: 9.303
  average expression of GSTM2: 5.945
  average expression of GTPBP1: 9.185
  average expression of HMOX1: 6.561
  average expression of HRSP12: 8.037
  average expression of IGK-V33: 9.992
  average expression of IGLC2_J00595—IG_LAMBDA—CONSTANT_2_14: 13.7
  average expression of IRAK3: 9.019
  average expression of IRF3: 7.749
  average expression of IVD: 9.212
  average expression of KCNC4: 5.832
  average expression of KRT39: 5.551
  average expression of KRTAP5-4: 5.651
  average expression of LOC193563: 5.759
  average expression of LOC238836: 13.84
  average expression of LOC243025: 6.623
  average expression of LOC327767: 5.978
  average expression of LOC382163: 6.742
  average expression of LOC383099: 13.14
  average expression of LOC386085: 6.21
  average expression of LOC386117: 7.052
  average expression of LOC636818: 5.986
  average expression of LOC100046003: 8.735
  average expression of LYNX1: 8.531
  average expression of MBD1: 9.009
  average expression of MBL1: 5.552
  average expression of MKL1: 6.303
  average expression of MREG: 8.88
  average expression of MYO7A: 6.668
  average expression of NEURL: 5.956
  average expression of NISCH: 7.088
  average expression of NOS3: 5.804
  average expression of NTE: 8.3088
  average expression of OLFR150: 5.626
  average expression of OLFR516: 5.76
  average expression of OLFR586: 5.541
  average expression of OPHN1: 5.71
  average expression of ORF19: 6.879
  average expression of P2RX4: 7.358
  average expression of PAPSS2: 6.662
  average expression of PARD3B: 5.905
  average expression of PCBP2: 12.63
  average expression of PCDH19: 5.63
  average expression of PEO1: 7.1356
  average expression of PI4KB: 9.544
  average expression of PIK3R6: 6.343
  average expression of PLEKHB2: 9.006
  average expression of PREP: 7.918
  average expression of PRKCZ: 6.967
  average expression of PROM: 5.87
  average expression of RARG: 6.121
  average expression of RASGRF1: 5.764
  average expression of RBM15: 7.902
  average expression of RCCD1: 8.174
  average expression of REN1: 5.599
  average expression of RFFL: 7.211
  average expression of RHBDD1: 7.627
  average expression of RING1: 8.656
  average expression of RNF10: 11.45
  average expression of RNF123: 7.4966
  average expression of S031414D18RIK: 8.467
  average expression of SCL0004023.1_57: 5.99
  average expression of SEC16A: 9.968
  average expression of SETD1A: 8.956
  average expression of SFXN3: 6.025
  average expression of SGPL1: 7.481
  average expression of SHC1: 11.03
  average expression of SHKBP1: 8.287
  average expression of SLC9A4: 5.715
  average expression of SLC25A42: 6.212
  average expression of SLC35E4: 5.806
  average expression of SLCO6C1: 5.618
  average expression of SMARCE1: 9.332
  average expression of SNX15: 9.294
  average expression of SNX33: 6.987
  average expression of SOLH: 7.952
  average expression of SP2: 6.867
  average expression of SRGAP2: 7.797
  average expression of SRGAP3: 6.074
  average expression of STARD3: 8.435
  average expression of TBC1D2: 6.839
  average expression of TBC1D25: 7.965
  average expression of TEAD4: 5.994
  average expression of TGFBI: 6.19
  average expression of TGIF1: 8.224
  average expression of TIMM8A2: 5.837
  average expression of TLR13: 6.019
  average expression of TMEM56: 5.549
  average expression of TMEM63A: 7.667
  average expression of TMUB1: 8.55
  average expression of TNS4: 5.759
  average expression of TRP53: 9.698
  average expression of TYROBP: 7.408
  average expression of USP11: 6.423
  average expression of USP22: 9.057
  average expression of USP54: 6.972
  average expression of WWP2: 8.833
  average expression of ZC3H12A: 8.215
  average expression of ZFP36L1: 13.82
  average expression of ZFP317: 7.218
  average expression of ZFP704: 5.829
  average expression of ZFPL1: 7.39
  genericLS expression level: 6.212
[1]
  average expression of CLEC4B1: 5.984
  average expression of LOC100048105: 13.17
  average expression of SLC11A1: 6.429
[2]
  average expression of CLEC4B1: 5.725
  average expression of LOC100048105: 13.47
  average expression of SLC11A1: 6.896
DOWN IN GA AND REF ONLY, second line for this gene (first at r2479)
  average expression of GAS7: 6.6505
DOWN IN generic ONLY
  29D0003A17RIK expression level: 6.032
  1700081L16RIK expression level: 5.561
  2210003I03RIK expression level: 5.693
  3110052M02RIK expression level: 5.651
  3110079O15RIK expression level: 5.642
  4833419KD8RIK expression level: 5.588
  4921522P10RIK expression level: 5.793
  4930543E05RIK expression level: 5.681
  4930571C24RIK expression level: 5.414
  5730599A22RIK expression level: 5.675
  6430527G18RIK expression level: 5.618
  6720487G11RIK expression level: 5.949
  A230066D03RIK expression level: 5.913
  A530088H08RIK expression level: 5.838
  A830021M18 expression level: 5.662
  ADAMTSL3 expression level: 5.806
  B230323D24RIK expression level: 5.81
  BRPF1 expression level: 8.958
  BTF3L4 expression level: 5.682
  C430020E23RIK expression level: 5.906
  CNTN2 expression level: 5.729
  CORO1B expression level: 11.36
  CRAT expression level: 5.921
  CREBZF expression level: 5.66
  D130050A01RIK expression level: 5.633
  D130061E05RIK expression level: 5.723
  D130063P19RIK expression level: 5.768
  D530031C13RIK expression level: 5.728
  DLG1 expression level: 5.734
  EFCAB1 expression level: 5.72
  EG634762 expression level: 5.772
  ELMO2 expression level: 5.907
  ENSMUSG00000071316 expression level: 5.766
  EZH2 expression level: 5.625
